These molecules were tested on c-Myc (assay: c-Myc immunofluorescence assay). Settings: A549 cells, 24 hours, anti-c-Myc immunofluorescence.
Format: cell-based, human
How it was run: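 A549 NSCLC cells grown 48 h, then treated 24 h with increasing compound concentrations; fixed in 4% paraformaldehyde, stained with anti-c-Myc antibody plus fluorescent secondary and DAPI. Per-cell c-Myc fluorescence quantified by high-content imaging at 20×; dose-response fitted by logistic regression to give EC50.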

SMILES	Myc Efficacy (−LogEC50)
CNC(=O)N1CCN(c2nc(-c3ccc(OC)cc3)no2)CC1 [Compound 191, 4-(3-(4-methoxyphenyl)-1,2,4-oxadiazol-5-yl)-N-methylpiperazine-1-carboxamide]	+ (+ >3 and <5)
COc1ccc(-c2noc(N3CCC(C(=O)Nc4ccc(Cl)cc4)CC3)n2)cc1 [Compound 192, N-(4-chlorophenyl)-1-(3-(4-methoxyphenyl)-1,2,4-oxadiazol-5-yl)piperidine-4-carboxamide]	+ (+ >3 and <5)
COc1ccc(-c2noc(N3CCN(C(=O)Nc4ccc(Cl)cc4)CC3)n2)cc1 [Compound 193, N-(4-chlorophenyl)-4-(3-(4-methoxyphenyl)-1,2,4-oxadiazol-5-yl)piperazine-1-carboxamide]	++ (++ ≥5 and <6)
COc1ccc(-c2noc(N3CCN(C(=O)Nc4cccc(Cl)c4)CC3)n2)cc1 [Compound 194, N-(3-chlorophenyl)-4-(3-(4-methoxyphenyl)-1,2,4-oxadiazol-5-yl)piperazine-1-carboxamide]	+ (+ >3 and <5)
COc1ccc(-c2noc(N3CCN(C(=O)Nc4ccccc4Cl)CC3)n2)cc1 [Compound 195, N-(2-chlorophenyl)-4-(3-(4-methoxyphenyl)-1,2,4-oxadiazol-5-yl)piperazine-1-carboxamide]	+ (+ >3 and <5)
COc1ccc(-c2coc(N3CCC(C(=O)NCC4CCN(Cc5ccc(C)cc5)C4)CC3)n2)cc1 (stereo not drawn) [Compound 196, 1-(4-(4-methoxyphenyl)oxazol-2-yl)-N-((1-(4-methylbenzyl)pyrrolidin-3-yl)methyl)piperidine-4-carboxamide]	++ (++ ≥5 and <6)
COc1ccc(-c2noc(C3CCC(C(=O)NCC4CCN(CCO)C4)CC3)n2)cc1 (stereo not drawn) [Compound 197, (1r,4r)-N-((1-(2-hydroxyethyl)pyrrolidin-3-yl)methyl)-4-(3-(4-methoxyphenyl)-1,2,4-oxadiazol-5-yl)cyclohexane-1-carboxamide]	+ (+ >3 and <5)
Cc1ccc(CN2CCC(CNC(=O)C3CCN(c4nc(-c5cccc(C#N)c5)no4)CC3)C2)cc1 (stereo not drawn) [Compound 198, 1-(3-(3-cyanophenyl)-1,2,4-oxadiazol-5-yl)-N-((1-(4-methylbenzyl)pyrrolidin-3-yl)methyl)piperidine-4-carboxamide]	++ (++ ≥5 and <6)
Cc1ccc(CN2CCC(CNC(=O)C3CCN(c4nc(-c5cccc(O)c5)no4)CC3)C2)cc1 (stereo not drawn) [Compound 199, 1-(3-(3-hydroxyphenyl)-1,2,4-oxadiazol-5-yl)-N-((1-(4-methylbenzyl)pyrrolidin-3-yl)methyl)piperidine-4-carboxamide]	+ (+ >3 and <5)
O=C(NCc1cccnc1)C1CCN(c2nc(-c3ccncc3)no2)CC1 [Compound 200, N-(pyridin-3-ylmethyl)-1-(3-(pyridin-4-yl)-1,2,4-oxadiazol-5-yl)piperidine-4-carboxamide]	+ (+ >3 and <5)
COc1ccc(-c2coc(N3CCC(C(=O)NCc4cccnc4)CC3)n2)cc1 [Compound 201, 1-(4-(4-methoxyphenyl)oxazol-2-yl)-N-(pyridin-3-ylmethyl)piperidine-4-carboxamide]	+ (+ >3 and <5)
O=C(C1CCN(c2nc(-c3ccncc3)no2)CC1)N1CCOCC1 [Compound 202, morpholino(1-(3-(pyridin-4-yl)-1,2,4-oxadiazol-5-yl)piperidin-4-yl)methanone]	+ (+ >3 and <5)
COc1ccc(-c2coc(N3CCC(C(=O)N4CCOCC4)CC3)n2)cc1 [Compound 203, (1-(4-(4-methoxyphenyl)oxazol-2-yl)piperidin-4-yl)(morpholino)methanone]	+ (+ >3 and <5)
COc1ccc(-c2noc(N3CCC(C(=O)N4CCN(C)CC4)CC3)n2)cc1 [Compound 204, (1-(3-(4-methoxyphenyl)-1,2,4-oxadiazol-5-yl)piperidin-4-yl)(4-methylpiperazin-1-yl)methanone]	+ (+ >3 and <5)
COc1ccc(-c2noc(N3CCC(C(=O)N4CCN(c5ccccc5)CC4)CC3)n2)cc1 [Compound 205, (1-(3-(4-methoxyphenyl)-1,2,4-oxadiazol-5-yl)piperidin-4-yl)(4-phenylpiperazin-1-yl)methanone]	+ (+ >3 and <5)
COc1ccc(-c2noc(N3CCN(C(=O)NCC4CCN(C)C4)CC3)n2)cc1 (stereo not drawn) [Compound 206, 4-(3-(4-methoxyphenyl)-1,2,4-oxadiazol-5-yl)-N-((1-methylpyrrolidin-3-yl)methyl)piperazine-1-carboxamide]	+ (+ >3 and <5)
COc1ccc(-c2noc(N3CCN(C(=O)NCCCN4CCC(Cc5ccccc5)CC4)CC3)n2)cc1 [Compound 207, N-(3-(4-benzylpiperidin-1-yl)propyl)-4-(3-(4-methoxyphenyl)-1,2,4-oxadiazol-5-yl)piperazine-1-carboxamide]	+++ (+++ ≥6)

SMILES	Myc Efficacy (−LogEC50)
COc1ccc(-c2noc(N3CCN(C(=O)NCCCN4CCC(C)CC4)CC3)n2)cc1 [Compound 208, 4-(3-(4-methoxyphenyl)-1,2,4-oxadiazol-5-yl)-N-(3-(4-methylpiperidin-1-yl)propyl)piperazine-1-carboxamide]	++ (++ ≥5 and <6)
COc1ccc(-c2noc(N3CCN(C(=O)Nc4ccccc4)CC3)n2)cc1 [Compound 209, 4-(3-(4-methoxyphenyl)-1,2,4-oxadiazol-5-yl)-N-phenylpiperazine-1-carboxamide]	+ (+ >3 and <5)
COc1ccc(-c2noc(N3CCC(C(=O)Nc4ccc(C)cc4)CC3)n2)cc1 [Compound 210, 1-(3-(4-methoxyphenyl)-1,2,4-oxadiazol-5-yl)-N-(p-tolyl)piperidine-4-carboxamide]	+ (+ >3 and <5)
COc1ccc(-c2noc(N3CCC(C(=O)Nc4cccc(C)c4)CC3)n2)cc1 [Compound 211, 1-(3-(4-methoxyphenyl)-1,2,4-oxadiazol-5-yl)-N-(m-tolyl)piperidine-4-carboxamide]	+ (+ >3 and <5)
COc1ccc(-c2noc(N3CCC(C(=O)Nc4cccc(Cl)c4)CC3)n2)cc1 [Compound 212, N-(3-chlorophenyl)-1-(3-(4-methoxyphenyl)-1,2,4-oxadiazol-5-yl)piperidine-4-carboxamide]	+ (+ >3 and <5)
COc1ccc(-c2noc(N3CCC(C(=O)Nc4ccccc4C)CC3)n2)cc1 [Compound 213, 1-(3-(4-methoxyphenyl)-1,2,4-oxadiazol-5-yl)-N-(o-tolyl)piperidine-4-carboxamide]	+ (+ >3 and <5)
COc1ccc(-c2noc(N3CCC(c4nc5ccccc5[nH]4)CC3)n2)cc1 [Compound 214, 5-(4-(1H-benzo[d]imidazol-2-yl)piperidin-1-yl)-3-(4-methoxyphenyl)-1,2,4-oxadiazole]	+ (+ >3 and <5)
COc1ccc(-c2noc(C3CCC(C(=O)NCC4CCN(CCO)C4)CC3)n2)cc1 (stereo not drawn) [Compound 215, (1s,4s)-N-((1-(2-hydroxyethyl)pyrrolidin-3-yl)methyl)-4-(3-(4-methoxyphenyl)-1,2,4-oxadiazol-5-yl)cyclohexane-1-carboxamide]	+ (+ >3 and <5)
COc1ccc(-c2noc(N3CCN(C(=O)N4CCC(Oc5ccccc5)CC4)CC3)n2)cc1 [Compound 216, (4-(3-(4-methoxyphenyl)-1,2,4-oxadiazol-5-yl)piperazin-1-yl)(4-phenoxypiperidin-1-yl)methanone]	+ (+ >3 and <5)
COc1ccc(-c2noc(N3CCC(C(=O)NCC4CCN(C)CC4)CC3)n2)cc1 [Compound 217, 1-(3-(4-methoxyphenyl)-1,2,4-oxadiazol-5-yl)-N-((1-methylpiperidin-4-yl)methyl)piperidine-4-carboxamide]	− (− ≤3)
COc1ccc(-c2noc(N3CCC(C(=O)NC4CCN(C)CC4)CC3)n2)cc1 [Compound 218, 1-(3-(4-methoxyphenyl)-1,2,4-oxadiazol-5-yl)-N-(1-methylpiperidin-4-yl)piperidine-4-carboxamide]	− (− ≤3)
COc1ccc(-c2noc(N3CCC(C(=O)NCC4CCN(C)C4)CC3)n2)cc1 (stereo not drawn) [Compound 219, 1-(3-(4-methoxyphenyl)-1,2,4-oxadiazol-5-yl)-N-((1-methylpyrrolidin-3-yl)methyl)piperidine-4-carboxamide]	− (− ≤3)
COc1ccc(-c2noc(N3CCC(C(=O)NCC4CCN(CC5CC5)C4)CC3)n2)cc1 (stereo not drawn) [Compound 220, N-((1-(cyclopropylmethyl)pyrrolidin-3-yl)methyl)-1-(3-(4-methoxyphenyl)-1,2,4-oxadiazol-5-yl)piperidine-4-carboxamide]	+ (+ >3 and <5)
COc1ccc(-c2noc(N3CCN(C(=O)NCC4CCN(CC5CC5)C4)CC3)n2)cc1 (stereo not drawn) [Compound 221, N-((1-(cyclopropylmethyl)pyrrolidin-3-yl)methyl)-4-(3-(4-methoxyphenyl)-1,2,4-oxadiazol-5-yl)piperazine-1-carboxamide]	+ (+ >3 and <5)
COc1ccc(-c2noc(N3CCC(C(=O)NCC4CCN(C(=O)c5ccc(C)cc5)C4)CC3)n2)cc1 (stereo not drawn) [Compound 222, 1-(3-(4-methoxyphenyl)-1,2,4-oxadiazol-5-yl)-N-((1-(4-methylbenzoyl)pyrrolidin-3-yl)methyl)piperidine-4-carboxamide]	++ (++ ≥5 and <6)
COc1ccc(-c2noc(N3CCC(C(=O)NCC4CCN(Cc5ccc(C)cn5)C4)CC3)n2)cc1 (stereo not drawn) [Compound 223, 1-(3-(4-methoxyphenyl)-1,2,4-oxadiazol-5-yl)-N-((1-((5-methylpyridin-2-yl)methyl)pyrrolidin-3-yl)methyl)piperidine-4-carboxamide]	++ (++ ≥5 and <6)
